From US9566311B2, “Pharmaceutical composition” (Ferring B.V., priority 2010, dated 2017)
Each block holds one molecule with its values, some of them ahead of it. Numbered stars: 1 amine (or outer) side, 2 acyl side, 3 side chain; on linkers, the order of the positions; unused ones are H or OH. Bridge positions count the residues as written; N and C are the ends. Peptide text beside a SMILES is read from it. X1 = O=C(CCC[*:2])[*:1]

How the values were obtained:
[1] = Stability of FE 202767 in citrate and citrate-phosphate buffers at 40° C., intact peptide by HPLC; format: physicochemical
Description: FE 202767 (Ferring) was synthesised by the method set out in WO2009/122285. FE 202767 was dissolved at a concentration of 0.2 mg/ml in either 25 mM citrate buffer (isotonic to saline) or 25 mM citrate-phosphate buffer (isotonic with saline) at varying pH (pH 5.0, 5.5, 6.0), by methods known in the art. The solutions were incubated at 40° C. for 176 days, with samples taken at day 0, 15, 30, 84, and 176.
Samples were evaluated by HPLC to determine the amount of intact peptide remaining at the various time points, by methods well known in the art, comparing the % Area. of the intact peptide peak on the sampling day vs. % Area on Day 0.
The HPLC method used an Agilent 1200 instrument. […] The Phenomenex MAX-RP C18, 2.0×150 mm, 4 μm, 80 Å column was at temperature 40 with UV detection at 210 nm. The injection volume was 10 μL.

[2] = Stability of FE 202767 in various buffers at 40° C./75% RH for one and three months, HPLC; format: physicochemical
Description: The method was similar to Example 7. FE 202767 (Ferring) was synthesised by the method set out in WO2009/122285. The FE 202767 was dissolved at a concentration of 0.2 mg/ml in either 25 mM citrate buffer (citric acid/Na citrate), 10 mM acetate buffer (acetic acetate/Na acetate) or 10 mM succinate buffer (1 mM succinic acid+NaOH to relevant pH) at varying pH (pH 5.0, 5.2, 5.5, 5.65, 5.8, 6.0), by methods known in the art. As set out in the table below, the various samples also included isotonicity agent (NaCl, 7 mg/mL or mannitol 47 mg/mL) to achieve isotonicity. Some of the samples included […] (methionine 1 mg/mL, EDTA 1 mg/mL, or combination of EDTA 1 mg/mL and methionine 1 mg/mL). Each formulation (see Table below) was filled in a 10R glass vial sealed with a rubber stopper and an aluminium cap.
The solutions were incubated at 40° C. at 75% RH, with samples taken at day 30 (1 month), and day 90 (3 months).
Samples were evaluated by HPLC to determine the amount of intact peptide remaining at the various time points, by methods well known in the art, comparing the % Area of the intact peptide peak on the sampling day vs. % Area on Day 0.
The HPLC method used an Agilent 1100 instrument. The mobile phases where HPLC Buffers A (A=0.1% TFA in water) and B (B=0.1% TFA in acetonitrile) with the gradient 20 to 30% B in 40 min, then 30 to 60% B in 15 min, then 60 to 20% B in 1 min and then 20% B for 10 min at flow rate 0.5 mL/min. The Zorbax 300SB C16, 3.0×150 mm, 3.5 μm, 300 Å column was at temperature 25 with UV detection at 214 nm. The injection volume was 15 μL

[3] = in vivo, cited from earlier work

intact peptide remaining ([1]; after 176 days at 40° C. in citrate buffer at pH 5.0 and 5.5): > 95% | intact peptide remaining ([1]; after 176 days at 40° C. in citrate-phosphate buffers, pH 5.0, 5.5 and 6.0, each condition): > 95% | degradation (in words) ([1]; after 176 days at 40° C. in pH 6.0 citrate buffer): significant degradation | stability (in words) ([2]; citrate and acetate buffers in the pH range tested, after 30 days at 40° C.): good stability | stability (in words) ([2]; citrate and acetate buffers in the pH range tested, after 90 days at 40° C.): good stability | stability (in words) ([2]; succinate buffer at pH 5.0 to 5.65, after 30 days at 40° C.): very stable | stability (in words) ([2]; succinate buffer at pH 5.0 to 5.65, after 90 days at 40° C.): stable
Molecule: carba-1-[4-FBzIGly^7]dOT [FE 202767]

Molecule: CC[C@H](C)[C@@H]1NC(=O)[C@H](Cc2ccc(O)cc2)NC(=O)[C@@H](N)CSSC[C@@H](C(=O)N2CCC[C@H]2C(=O)N[C@@H](CC(C)C)C(=O)NCC(N)=O)NC(=O)[C@H](CC(N)=O)NC(=O)[C@H](CCC(N)=O)NC1=O [oxytocin]
reported half-life [3]: 4 to 10 min

Molecule: CC[C@H](C)[C@@H]1NC(=O)[C@H](Cc2ccc(OC)cc2)NC(=O)CCCSC[C@@H](C(=O)N2CCC[C@H]2C(=O)N[C@@H](CC(C)C)C(=O)NCC(N)=O)NC(=O)[C@H](CC(N)=O)NC(=O)[C@H](CCC(N)=O)NC1=O [carbetocin, (1-desamino-1-monocarba-2(O-methyl)-tyrosine)oxytocin] (Y(Me)IQNCPLG-NH2; linker N-5 via X1)
bioavailability ([3]; human, im): 80% | half-life ([3]; human, iv): approximately 40 minutes | half-life relative to the reported half-life of oxytocin ([3]; iv): 4 to 10 times longer | time to peak plasma concentrations [3]: less than thirty minutes
